Assay [1] concerns Huh7 cells. Description: alamarBlue cell viability / proliferation, Huh7. The class given is cell-based, human. An excerpt: (§1) Next, we analyzed the effect of PGG on cell proliferation in different liver cancer cell lines, including Huh7, Hep3B (ATCC-No 8064), HepG2 (ATCC HB-8065), SK-HEP-1 (ATCC HTB-52), Mahlavu and HepG2 (ATCC HB-8065).
(§2) Please refer to FIG. 18, which illustrates the effect of PGG on cell proliferation in different liver cancer cell lines, wherein the numeral 1 denotes Huh7 cells, the numeral 2 denotes Hep3B cells, the numeral 3 denotes SK-HEP-1 cells, the numeral 4 denotes Mahlavu cells, and the numeral 5 denotes HepG2 cells. And cell viability was determined by the alamarBlue® viability assay. IC50 values of PGG in each cell line are shown as follows: Huh7 cells 0.03 mg/mL, Hep3B cells 0.07 mg/mL, SK-HEP-1 cells, Mahlavu cells and HepG2 0.10 mg/mL dose-dependent.
(§3) Human liver cancer cell lines Huh7, Hep G2, Hep 3B, SK-HEP-1, Mahlavu and embryonic kidney cell line HEK-293T all were cultured in Dulbecco's Modified Eagle's Medium (DMEM) (Gibco BRL, Grand Island, N.Y., USA) with 10% heat-inactivated fetal bovine serum (HyClone, Logan, Utah, USA), penicillin (100 U/mL), streptomycin ([…]), nonessential amino acids (0.1 mM/L) and L-glutamine (2 mM/L) in a humidified incubator with 5% CO2.

For assay [2], the system named is human glycine N-methyltransferase promoter. In words: GNMT promoter-driven luciferase reporter assay in H7GPL cells. The class given is cell-based. Particulars: H7GPL luciferase. The method, then: Please refer to FIG. 1, which illustrates the configuration of pLV-GNMTpLuc plasmid. HEK293T cells were cotransfected with a packaging plasmid-pCMV-ΔR8.91, a VSV-G envelope expressing plasmid-pMD.G and pLV-GNMTpLuc using TurboFect™ Reagent (Fermentas, Hanover, Md.). One resultant colony was picked, amplified and denominated as H7GPL (HuH-7-GNMT promoter-Luciferase). The relative luciferase activity (RLA) was calculated as “activity of luciferase/intensity of alamarBlue fluorescence”. The fold changes in GNMT promoter induction was calculated as “RLA of drug/RLA of solvent control”. Compounds with the ability to activate human glycine N-methyltransferase promoter in H7GPL could serve as a citeria for screening drugs.
Please refer to FIG. 2, which illustrates the luciferase activity in a screening platform. Previously, 26 FDA approved drugs were identified that can reverse the gene expression signature of HCC. We obtained 26 drugs. H7GPL cells were seeded in 96-well plates for 18 hours and then were treated with these 26 drugs and solvent control for an extra 24 hours.
In the initial screening, when (individual luciferase activity−average luciferase activity of all hits)/standardized Z scores of all samples is greater than 1.5, it means the compound has the capability of enhancing the GNMT reporter activity.
Huh7 cells were infected with this virus and selected with puromycin-containing medium. One resultant colony was picked, amplified and denominated as H7GPL (Huh7 GNMT promoter-luciferase). The cell lysate of H7GPL was used for luciferase activity measurement using the Luciferase Assay System (Promega).
For primary screening, H7GPL cells seeded in 96-well plates were treated for 24 h with individual drugs at a concentration of 2 mg/mL for crude extracts and 0.2 mg/mL for pure compounds and then were lysed for the luciferase activity assay using the Luciferase Assay System (Promega, Madison, Wis., USA).
Reporter activity for each well was transformed to the Z score by using data from all assay plates.
Then, hits of primary screening were sorted by Z score ≥1.5 and used for secondary screening.
And then placed in the above-described culture plate H7GPL cell replication, and after the disposal of seized goods in those 20 hours, the company added AbD serotec Reagent (Oxford, UK), further cultured for 4 hours.
The cytotoxicity was measured according to the manufacturer's recommendation for assessing the reporter gene.
Drugs that induced GNMT promoter activity ≥1.5-fold were considered as hits of the secondary screen with the capability of enhancing the activity of GNMT.
A general note: Reporter assays use an easily measured gene product as a stand-in for the process of interest.

In assay [3] the test system is c-Myc protein. Description: c-Myc protein expression by immunoblotting, PC-3. As to conditions: PC-3 cells, 0.1 mg/mL. The class given is cell-based, human. The method, then: (§4) Human prostate cancer cell line PC-3 and human promyelocytic leukemia cell line HL-60 were cultured in Gibco BRL company RPMI (Roswell Park Memorial Institute) 1640's medium.
(§5) Cells or xenograft tumors were harvested with RIPA lysis buffer (50 mM Tris (pH 7.5), 150 mM NaCl, 1% Triton X-100, 0.1% sodium dodecyl sulfate (SDS), 0.5% sodium deoxycholate, supplemented with protease and phosphatase inhibitors (1 mM Phenylmethanesulfonyl Fluoride (PMSF), […], […] Tosyllysine Chloromethyl Ketone (TLCK), […] Tosyl phenylalanyl chloromethyl ketone (TPCK), […] aprotinin, 1 mM sodium fluoride (NaF), 5 mM sodium pyrophosphate (NaPPi) and 10 mM sodium orthovanadate (Na3VO4).
(§6) Protein lysates were quantified and separated on SDS-PAGE gel, and immunoblotting was carried out.
A general note: In western blotting, separated proteins are transferred to a membrane and probed.

For assay [4], the system named is c-Myc protein. In words: c-Myc protein expression by immunoblotting, HL60. The class given is cell-based, human. Particulars: HL60 cells, 0.1 mg/mL. The method, then: as §4, §5, §6
Assay [5] has as its system GNMT promoter. In words: Dual luciferase GNMT promoter reporter assay in c-Myc knocked-out Huh7 cells. The class given is cell-based, human. Particulars: 0.1 mg/mL. The method, then: Huh7 cells were co-transfected with a GNMT promoter reporter plasmid, a thymidine kinase (TK) renilla luciferase plasmid, a shMyc plsmid or a shLacZ plasmid for 72 hours.
Evaluating whether the activity of GNMT promoter is damaged or not by knocking out the c-Myc gene and then administering with PGG, in order to confirm that the inhibition of the expression of c-Myc resulting in induced GNMT promoter due to PGG.
Please refer to FIG. 39, which illustrates overexpressions of PGG and c-Myc have influences on GNMT reporter, wherein the numeral 1 denotes the solvent, the numeral 2 denotes PGG, the numeral 3 denotes shLacZ, and the numeral 4 denotes shMyc.

The subject of assay [6] is caspase 3/7. Description: Caspase 3/7 activity assay. The class given is cell-based, human. As to conditions: Huh7 cells, 12 hours. The method, then: Please refer to FIG. 24, which illustrates PGG induced caspase 3/7 activity in Huh7 cells.
Huh7 cells were plated in 96-well plate and treated with solvent or PGG for 12 h. To measure caspase-3 and caspase-7 activation, the Apo-ONE® Homogeneous Caspase-3/7 assay was performed according to the Promega Technical Bulletin-Apo-ONE® Homogeneous Caspase-3/7 assay.

Assay [7] concerns Mahlavu cells. Description: alamarBlue cell viability, Mahlavu. Format: cell-based, human.
Source text: as §1, §2, §3
For orientation: The colour change of resazurin is a common sign of viable cells or microbes.

The structures appear in SMILES notation. Converted amounts (≈) assume the structure as drawn.

Regarding `O=C(OC[C@H]1O[C@@H](OC(=O)c2cc(O)c(O)c(O)c2)[C@H](OC(=O)c2cc(O)c(O)c(O)c2)[C@@H](OC(=O)c2cc(O)c(O)c(O)c2)[C@@H]1OC(=O)c1cc(O)c(O)c(O)c1)c1cc(O)c(O)c(O)c1` [PGG, 1,2,3,4,6-penta-O-galloyl-β-D-glucopyranoside], the IC50 in assay [1] turned out to be 30 µg/mL (≈ 31.9 µM); in assay [7] it was 100 µg/mL (≈ 106 µM). Also, the “GNMT promoter activity (in words)” value in assay [2] was “can induce GNMT promoter activity”. For the same molecule, the c-Myc protein expression result in assay [3] and in assay [4] was “inhibits c-Myc protein expression” each time. For the same molecule, the “GNMT promoter induction in cells knocked out c-Myc (shMyc vs shLacZ)” value in assay [5] is “drop”. Further, the “increase in caspase 3/7 activity” value in assay [6] is “five-fold”.

By IC50 is commonly meant the concentration needed to halve the response being measured. Lower therefore signals inhibition by little substance.
